Data on 15 compounds can be found in patent US10030012B2, “Piperidin-1-yl and azepin-1-yl carboxylates as muscarinic M4 receptor agonists” (Heptares Therapeutics Limited, priority 2013, dated 2018).

Where only a bound is given, the exact number is not on record here.

For one test, the target named is human M2 receptor (Homo sapiens (Human), UniProt P08172). The test can be described thus: In vitro M2 functional assay (intracellular calcium, FLiPR Tetra). Type of test: cell-based. To be noted: for M2 EC50 / EC50: CHOK1 cells stably expressing human M2 receptor and Gα16, calcium flux, No Response = no significant response of calcium flux indicative of agonism; for M2 % RE: relative efficacy to an EC100 concentration of acetylcholine. The method, boiled down: (§1)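 CHOK1 cells stably expressing human M4 or M2 with Gα16, loaded with Calcium 5 dye 45 min at 37° C in HBSS/HEPES/BSA/probenecid pH 7.4. Fluorescence read 5 min after compound; EC50 from ten-point half-log curves, duplicate wells, four-parameter fit; efficacy relative to EC100 acetylcholine.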
A general note: Calcium assays in cells follow changes in intracellular calcium, usually with a dye or a luminescent sensor.

Another test addresses human M4 receptor (Homo sapiens (Human), UniProt P08173). The test can be described thus: In vitro M4 functional assay (intracellular calcium, FLiPR Tetra). The format is cell-based. As to conditions: for EC50: CHOK1 cells stably expressing human M4 receptor and Gα16, calcium flux; for Emax: relative efficacy to an EC100 concentration of acetylcholine, read-out: M4 % RE. The method, boiled down: as §1

Chain of human M2 receptor (P08172 whole entry): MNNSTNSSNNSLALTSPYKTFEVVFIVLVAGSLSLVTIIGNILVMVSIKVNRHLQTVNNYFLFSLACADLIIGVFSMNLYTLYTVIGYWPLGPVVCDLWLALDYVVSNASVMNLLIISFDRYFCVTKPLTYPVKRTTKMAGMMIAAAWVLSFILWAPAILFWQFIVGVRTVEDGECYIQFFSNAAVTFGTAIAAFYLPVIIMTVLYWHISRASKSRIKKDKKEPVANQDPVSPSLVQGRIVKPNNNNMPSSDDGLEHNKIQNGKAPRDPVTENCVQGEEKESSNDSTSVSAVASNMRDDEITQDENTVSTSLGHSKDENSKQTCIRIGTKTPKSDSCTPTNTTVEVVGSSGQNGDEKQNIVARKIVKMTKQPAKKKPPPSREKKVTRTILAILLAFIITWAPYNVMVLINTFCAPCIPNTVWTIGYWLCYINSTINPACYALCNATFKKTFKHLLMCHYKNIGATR
Chain of human M4 receptor (P08173 whole entry): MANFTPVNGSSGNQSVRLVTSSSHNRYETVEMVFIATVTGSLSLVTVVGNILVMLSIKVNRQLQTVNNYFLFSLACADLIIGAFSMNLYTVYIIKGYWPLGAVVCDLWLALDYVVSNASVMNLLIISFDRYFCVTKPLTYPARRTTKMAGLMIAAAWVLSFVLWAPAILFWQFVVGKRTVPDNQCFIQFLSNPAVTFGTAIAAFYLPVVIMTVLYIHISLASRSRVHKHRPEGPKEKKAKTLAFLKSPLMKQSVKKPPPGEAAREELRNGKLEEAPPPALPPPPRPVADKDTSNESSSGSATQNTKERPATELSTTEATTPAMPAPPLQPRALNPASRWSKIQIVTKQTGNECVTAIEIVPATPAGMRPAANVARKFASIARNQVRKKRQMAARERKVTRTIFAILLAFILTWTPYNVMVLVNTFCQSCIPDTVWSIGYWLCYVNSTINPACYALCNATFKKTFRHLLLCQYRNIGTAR

For the compound `CCOC(=O)N1CCCC(N2CCC(c3cc(Cl)cnc3OC)CC2)CC1` (stereo not drawn) [Example 58, Ethyl 4-[4-(5-chloro-2-methoxypyridin-3-yl)piperidin-1-yl]azepane-1-carboxylate], the “M2 EC50” value at human M2 receptor is reported as “No Response”. For the same compound, on human M4 receptor, the EC50 was 2 nM and the Emax amounted to 95%.

With `CCOC(=O)N1CCCC(N2CCC(c3cncc(N(C)C)n3)CC2)CC1` (stereo not drawn) [Example 50, Ethyl 4-{4-[6-(dimethylamino)pyrazin-2-yl]piperidin-1-yl}azepane-1-carboxylate], the “M2 EC50” value at human M2 receptor was “No Response”. For the same compound, at human M4 receptor, the EC50 came to 460 nM and the Emax was 50%.

On to `CCOC(=O)N1CCCC(N2CCC(n3nccc3-c3ccc(Cl)cc3)CC2)CC1` (stereo not drawn) [Example 5, Ethyl 4-{4-[5-(4-chlorophenyl)-1H-pyrazol-1-yl]piperidin-1-yl}azepane-1-carboxylate], for which the EC50 at human M2 receptor is greater than 10000 nM. Also, the activation at 10 µM at human M2 receptor (response at 10 μM compound, relative to an EC100 concentration of acetylcholine, read-out: M2 % RE @ 10 μM) came out at 25%. Moreover, at human M4 receptor, the EC50 amounted to 250 nM and the Emax was determined as 49%.

Consider `CCOC(=O)N1CCCC(N2CCC(c3cc(C(F)(F)F)cnc3OC)CC2)CC1` (stereo not drawn) [Example 43, Ethyl 4-{4-[2-methoxy-5-(trifluoromethyl)pyridin-3-yl]piperidin-1-yl}azepane-1-carboxylate], for which, on human M2 receptor, the EC50 stood at 180 nM and the “M2 % RE” value was found to be 62%. Also, at human M4 receptor, the EC50 was determined as 20 nM and the Emax was 94%.

In the case of `CCOC(=O)N1CCC(N2CCC(c3nccs3)CC2)CC1` [Example 68, Ethyl 4-[4-(1,3-thiazol-2-yl)piperidin-1-yl]piperidine-1-carboxylate], the “M2 EC50” value on human M2 receptor was “No Response”. Moreover, at human M4 receptor, the EC50 came out at 540 nM and the Emax came out at 45%.

For `CCOC(=O)N1CCC[C@H](N2CCC(c3cccnc3OC)CC2)CC1` [Example 85, Ethyl (4S)-4-[4-(2-methoxypyridin-3-yl)piperidin-1-yl]azepane-1-carboxylate], the “M2 EC50” value at human M2 receptor is recorded as “No response”. On human M4 receptor, the EC50 came to 26 nM and the Emax stood at 91%.

`CCOC(=O)N1CCCC(N2CCC(c3cncnc3OC)CC2)CC1` (stereo not drawn) [Example 51, Ethyl 4-[4-(4-methoxypyrimidin-5-yl)piperidin-1-yl]azepane-1-carboxylate]: on human M2 receptor, the “M2 EC50” value is “No Response”. Further, on human M4 receptor, the EC50 is 310 nM and the Emax was 69%.

Consider `CCOC(=O)N1CCC(N2CCC(c3cccnc3C)CC2)CC1` [Example 46, Ethyl 4-[4-(2-methylpyridin-3-yl)piperidin-1-yl]piperidine-1-carboxylate], for which the “M2 EC50” value on human M2 receptor was “No Response”. On human M4 receptor, the EC50 is 1550 nM and the Emax was 31%.

Regarding `CCOC(=O)N1CCCC(N2CCC(n3nccc3COC)CC2)CC1` (stereo not drawn) [Example 23, Ethyl 4-{4-[5-(methoxymethyl)-1H-pyrazol-1-yl]piperidin-1-yl}azepane-1-carboxylate], on human M2 receptor, the “M2 EC50” value is listed as “No Response”. Further, on human M4 receptor, the EC50 was 750 nM and the Emax was determined as 67%.

In the case of `CCOC(=O)N1CCCC(N2CCC(c3cccn(CC#N)c3=O)CC2)CC1` (stereo not drawn) [Example 56, Ethyl 4-{4-[1-(cyanomethyl)-2-oxo-1,2-dihydropyridin-3-yl]piperidin-1-yl}azepane-1-carboxylate], the “M2 EC50” value at human M2 receptor is “No Response”. Besides, on human M4 receptor, the EC50 was found to be 2350 nM and the Emax is 24%.

Regarding `CCOC(=O)N1CCCC(N2CCC(c3nc(C)cnc3C)CC2)CC1` (stereo not drawn) [Example 59, Ethyl 4-[4-(3,6-dimethylpyrazin-2-yl)piperidin-1-yl]azepane-1-carboxylate], on human M2 receptor, the “M2 EC50” value is given as “No Response”. Besides, on human M4 receptor, the EC50 turned out to be 530 nM and the Emax came out at 30%.

For the compound `CCOC(=O)N1CCCC(N2CCC(n3nccc3C#N)CC2)CC1` (stereo not drawn) [Example 27, Ethyl 4-[4-(5-cyano-1H-pyrazol-1-yl)piperidin-1-yl]azepane-1-carboxylate], the “M2 EC50” value on human M2 receptor is recorded as “No Response”. Also, on human M4 receptor, the EC50 worked out at 320 nM and the Emax was 55%.

Turning to `CCOC(=O)N1CCCC(N2CCC(n3nccc3C3CC3)CC2)CC1` (stereo not drawn) [Example 20, Ethyl 4-[4-(5-cyclopropyl-1H-pyrazol-1-yl)piperidin-1-yl]azepane-1-carboxylate], at human M2 receptor, the EC50 turned out to be 2260 nM and the “M2 % RE” value was 37%. Besides, on human M4 receptor, the EC50 worked out at 190 nM and the Emax worked out at 77%.

For `CCOC(=O)N1CCCC(N2CCC(c3nccnc3N(C)C)CC2)CC1` (stereo not drawn) [Example 49, Ethyl 4-{4-[3-(dimethylamino)pyrazin-2-yl]piperidin-1-yl}azepane-1-carboxylate], the “M2 EC50” value on human M2 receptor is recorded as “No Response”. Also, on human M4 receptor, the EC50 was found to be 210 nM and the Emax turned out to be 53%.

On to `CCOC(=O)N1CCCC(N2CCC(c3cccnc3C3CC3)CC2)CC1` (stereo not drawn) [Example 66, Ethyl 4-[4-(2-cyclopropylpyridin-3-yl)piperidin-1-yl]azepane-1-carboxylate], for which the “M2 EC50” value at human M2 receptor is listed as “No Response”. On human M4 receptor, the EC50 is 120 nM and the Emax worked out at 84%.

As usually defined, the EC50 is the midpoint of the concentration-response curve.
